Tests used:
[1] = system: platelet aggregation induced by ADP; test: Platelet aggregation inhibitory activity in vivo (Born aggregometer), ADP-induced; set-up: species or system New Zealand rabbits; settings: Oryctolagus cuniculus, Platelet, ip, dose for 50% inhibition of ADP-induced aggregation curve; rabbits, intraperitoneal, blood 2, 4 and 6 hours after injection; read-out: platelet antiaggregant activity (AAP), DI50, ADP
Protocol: (§1) Determination of the platelet aggregation inhibitory activity in vivo
(§2) The activity of the above described compounds as platelet antiaggregant was tested in vivo on rabbits, by the Born aggregometer. The inhibition of the aggregation curve induced by ADP and thrombin was assessed with different drug concentrations according to the platelet reactivity. New Zealand rabbits which had been held fasting for 12 hours with water ad libitum, were anaesthetized with Nembutal in a dose of 35 mg/kg intramuscolarly. The blood was withdrawn from the carotidal arthery, before (control) and 2, 4, and 6 hours after the intraperitoneal injection of the compounds under examination (at the dose indicated below). The blood samples were taken up in a 3.8% aqueous solution of sodium citrate in a ratio 10:1 and thereupon centrifuged at 1500 r.p.m. for 10 minutes, for obtaining a PRP (platelet rich plasma). A portion of such a plasma was thereupon centrifuged at 8000 r.p.m. for 10 minutes, for obtaining a PPP (platelet lean plasma) which was used for zeroing the measuring apparatus.
(§3) From the results of said experiments, there was determined the dose of each product in mg/kg body weight able to induce a 50% inhibition of the aggregation curve (DI50) after treatment, referred to the curve obtained by the same control plasma before treatment.
(§4) In tables I and II are further indicated for each compound the method of preparation; the melting point PF in °C; the platelet antiaggregant activity (AAP) expressed in terms of DI50 in mg/kg, referred to ADP and thrombin respectively; the antithrombin activity (AT) in %; the anticoagulant activity (AC) in %; the fibrinolytic activity (FL) in %; the acute toxicity (LD50) in mice, intraperitoneally, in mg/kg, as previously defined.

[2] = system: platelet aggregation induced by thrombin; test: Platelet aggregation inhibitory activity in vivo (Born aggregometer), thrombin-induced; set-up: species or system New Zealand rabbits; settings: Oryctolagus cuniculus, Platelet, ip, dose for 50% inhibition of thrombin-induced aggregation curve; rabbits, intraperitoneal, blood 2, 4 and 6 hours after injection; read-out: platelet antiaggregant activity (AAP), DI50, Thrombin
Protocol: as §1, §2, §3, §4

[3] = system: thrombin-induced coagulation of platelet rich plasma; test: Antithrombin activity on PRP, Hartert's thromboelastograph; type: in vivo, New Zealand rabbits; settings: Oryctolagus cuniculus, Platelet, ip, percent decrease of index ma/[r+k] vs before treatment; 20 mg/kg intraperitoneal, rabbits
Protocol: Determination of the antithrombin activity
The antithrombin activity on the PRP (platelet rich plasma) obtained following the above described method was assessed by Hartert's thromboelastograph (Hellige model). The coagulation was induced by adding to 0.25 ml of plasma 0.06 ml of a thrombin solution (Roche Topostasin® per os) at 60 units*, pH 7.4**. The antithrombin activity was assessed in terms of a percent decrease of the index (ma/[r+k]) which was calculated from the thromboelastograph diagram, wherein r is the reaction time, k is the speed of the coagulum formation and ma is the maximum spread of the tong, after an intraperitoneal treatment with a dose of 20 mg/kg of each compound under examination, referred to the same index obtained before the treatment (control).
as §4

[4] = system: CaCl2-induced plasma coagulation; test: Anticoagulant activity on PRP, Hartert's thromboelastograph; type: in vivo, New Zealand rabbits; settings: Oryctolagus cuniculus, ip, percent increase of total time for coagulum formation (r+k) vs before treatment; 25 mg/kg intraperitoneal, rabbits; read-out: anticoagulant activity (AC)
Protocol: Determination of the anticoagulant activity
The anticoagulant activity was also assessed on PRP of animals treated as described in the preceding methods, by using again Hartert's thromboelastograph method.
The plasma coagulation was induced by adding to 0.25 ml PRP a 1.29% solution of CaCl2.
The anticoagulant effect was determined as a percent increase of the total time for the coagulum formation (the index r+k can be obtained from the thromboelastograph diagram) in a plasma after treatment, referred to the same index obtained before the treatment (control). Again the dose level was 25 mg/kg for each compound under examination, intraperitoneally.
as §4

blood coagulum = test: Fibrinolytic activity, Fearnley method (lysis of blood coagulum in toto); type: in vivo; settings: Oryctolagus cuniculus, ip, 0.5 h, percent decrease of coagulum weight after 30 minutes at 37° C.; 25 mg/kg intraperitoneal, rabbits; read-out: fibrinolytic activity (FL)
Protocol: Determination of the fibrinolytic activity
The determination of the fibrinolytic activity was made following the Fearnley method for the lysis of the blood coagulum in toto.
0.2 ml of blood were withdrawn from the marginal vein of the ear of rabbits treated in the same way as the previously described tests, before and after an intraperitoneal injection of the compounds under test at a dose level of 25 mg/kg for each compound.
The blood samples were placed in test tubes containing 1.7 ml of phosphate buffer at pH 7.4 and 0.1 ml of thrombin (Roche Topostasin ® per os) at 50 units NIH/ml, and maintained in an ice bath. The test tubes were maintained at said temperature for 30 minutes and thereupon were transferred to a temperature controlled water bath at 37° C.
The fibrinolytic activity was determined as a percent decrease of the coagulum weight, measured after incubation for 30 minutes at 37° C.
as §4

[5] = Acute toxicity, intraperitoneal; settings: mouse, in vivo, ip, male Swiss mice, intraperitoneal, 7 days observation; preliminary, by graphic interpolation; read-out: acute toxicity (LD50 / DL50)
Protocol: The acute toxicity limit was determined intraperitoneally on male Swiss mice, weighing 20±2 g, held fasting for 18 hours with water ad libitum.
The animals were maintained under observation for 7 days of treatment, by examining the general symptomatology and noting the death sequency. The preliminary DL50 in mg/kg body weight was calculated by graphic interpolation of the results as obtained.
as §4

SMILES	ED50 [1] [mg/kg]	ED50 [2] [mg/kg]	inhibition in vivo at 20 mg/kg [3] [%]	change in vivo at 25 mg/kg [4] [%]	fibrinolytic activity (percent decrease of coagulum weight) at 25 mg/kg (blood coagulum) [%]	LD50 at 168 h [5] [mg/kg]
CCC(CC)Oc1c(Cl)cc(C(=O)NCc2cccnc2)cc1C(=O)NCc1cccnc1 [Example 30]	42.2	29.5	27.9	22.3	25.8	198
CC=CCOc1ccc(C(=O)NCc2cccnc2)cc1C(=O)NCc1cccnc1 [Example 11]	25.3	18.6	52.3	13.5	44.2	178
COc1ccc(C(=O)NCc2ccncc2)cc1C(=O)NCc1ccncc1 [Example 58]	28.1	21.3	37	18.2	31.7	704
C=CC(C)Oc1ccc(C(=O)NCc2cccnc2)cc1C(=O)NCc1cccnc1 (stereo not drawn) [Example 54]	32.3	21.2	46.3	18.7	35.2	355
COc1cc(C(=O)NCc2cccnc2)cc(C(=O)NCc2cccnc2)c1OCC(C)(C)C [Example 37]	44.6	32	25.5	14.2	21.9	378
CC(C)=COc1ccc(C(=O)NCc2cccnc2)cc1C(=O)NCc1cccnc1 [Example 55]	28.2	20.5	32.5	19.2	29.5	338
C=CCCCCOc1ccc(C(=O)NCc2cccnc2)cc1C(=O)NCc1cccnc1 [Example 10]	29.4	21.1	52.6	12.6	43.9	194
COc1c(Cl)cc(C(=O)N(Cc2ccncc2)C(C)C)cc1C(=O)N(Cc1ccncc1)C(C)C [Example 71]	28.1	19.6	53.9	25.6	47.7	384
CCC(C)(C)Oc1c(Cl)cc(C(=O)NCc2cccnc2)cc1C(=O)NCc1cccnc1 [Example 29]	44.1	30.7	27.3	20	24.1	206
CC(C)COc1ccc(C(=O)NCc2cccnc2)cc1C(=O)NCc1cccnc1 [Example 15]	52.6	33	25.5	17.6	19.8	471
COc1ccc(C(=O)N(Cc2cccnc2)C(C)C)cc1C(=O)N(Cc1cccnc1)C(C)C [Example 43]	27.3	20.6	39.4	20.7	33.6	478
